Data on 25 molecules can be found in patent US10934310B2, “Inhibitors of Bruton's tyrosine kinase and method of their use” (JANSSEN PHARMACEUTICA NV, priority 2015, dated 2021).

Sequence of unphosphorylated-BTK kinase domain (UP-BTK), GST-tagged human BTK (389-659aa) (Q06187 389-659): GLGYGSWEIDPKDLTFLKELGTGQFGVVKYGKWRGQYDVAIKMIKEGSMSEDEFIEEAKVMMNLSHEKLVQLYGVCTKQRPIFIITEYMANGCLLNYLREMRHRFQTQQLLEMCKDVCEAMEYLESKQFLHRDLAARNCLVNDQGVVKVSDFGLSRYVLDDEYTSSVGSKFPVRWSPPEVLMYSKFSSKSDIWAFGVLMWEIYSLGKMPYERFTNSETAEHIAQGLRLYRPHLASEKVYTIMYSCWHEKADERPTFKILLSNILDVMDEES

For one assay, the target named is unphosphorylated-BTK kinase domain (UP-BTK), GST-tagged human BTK (389-659aa) (Homo sapiens (Human), UniProt Q06187). Nature of the assay: BTK Kinase Lanthascreen Binding Assay. The note with it: compound, 50 nM Tracer 236, 2 nM anti-GST antibody, 60 minutes; pIC50 = negative log of the IC50 in molar. As for the experimental part: BTK Kinase Lanthascreen Binding Assay:
A BTK kinase lanthascreen binding assay monitors compound binding to unphosphorylated-BTK kinase domain (UP-BTK), by competing with a fluorescent labeled tracer. […] Data were analyzed using Xlfit™ version 5.3 from ID Business Solutions (Guildford), Microsoft Excel add-in. pIC50 refers to the negative log of the IC50 in molar.
Background: TR-FRET usually uses a lanthanide donor and a delayed reading to cut background.
On to `C=CC(=O)N[C@H]1CCCC[C@H]1NC(=O)c1sc2nccc3c2c1NC(=O)N3c1ccc(OC(C)C)nc1C` [Example 211, N-((1R,2S)-2-Acrylamidocyclohexyl)-5-(6-isopropoxy-2-methylpyridin-3-yl)-4-oxo-4,5-dihydro-3H-1-thia-3,5,8-triazaacenaphthylene-2-carboxamide], for which the “BTK_I_binding pIC50” value came to 6.92.
The same measure, in the same setting: the same measure for `C=CC(=O)N[C@@H]1CC[C@@H](NC(=O)c2sc3nccc4c3c2NC(=O)N4c2ccnc(-c3ccccc3)c2)C1` [Example 212, N-((1R,3R)-3-Acrylamidocyclopentyl)-4-oxo-5-(2-phenylpyridin-4-yl)-4,5-dihydro-3H-1-thia-3,5,8-triazaacenaphthylene-2-carboxamide]: 7.49; for `Cc1cc(Oc2ccccc2)ccc1N1C(=O)Nc2c(C(=O)N[C@@H]3CC[C@@H](NC(=O)CN(C)C)C3)sc3nccc1c23` [Example 217, N-((1R,3R)-3-(2-(Dimethylamino)acetamido)cyclopentyl)-5-(2-methyl-4-phenoxyphenyl)-4-oxo-4,5-dihydro-3H-1-thia-3,5,8-triazaacenaphthylene-2-carboxamide]: 7.44.
On to `C=CC(=O)N[C@@H]1CCCC[C@H]1NC(=O)c1sc2nccc3c2c1NC(=O)N3c1ccc(Oc2ccccc2)cn1` [Example 218, N-((1R,2R)-2-Acrylamidocyclohexyl)-4-oxo-5-(5-phenoxypyridin-2-yl)-4,5-dihydro-3H-1-thia-3,5,8-triazaacenaphthylene-2-carboxamide], for which the “BTK_I_binding pIC50” value amounted to 6.76.
Still for that read-out and setting: with `C=CC(=O)N[C@H]1CCC[C@H]1NC(=O)c1sc2nccc3c2c1NC(=O)N3c1ccc(Oc2ccccn2)cc1C` [Example 220, N-((1R,2S)-2-acrylamidocyclopentyl)-5-(2-methyl-4-(pyridin-2-yloxy)phenyl)-4-oxo-4,5-dihydro-3H-1-thia-3,5,8-triazaacenaphthylene-2-carboxamide] the figure was 8.16; with `C=CC(=O)N[C@H]1CCCC[C@H]1NC(=O)c1sc2nccc3c2c1NC(=O)N3c1cnc(OC2CCCC2)cc1C` [Example 223, N-((1R,2S)-2-Acrylamidocyclohexyl)-5-(6-(cyclopentyloxy)-4-methylpyridin-3-yl)-4-oxo-4,5-dihydro-3H-1-thia-3,5,8-triazaacenaphthylene-2-carboxamide], 7.81; with `C=CC(=O)N[C@H]1CCC[C@H]1NC(=O)c1sc2nccc3c2c1NC(=O)N3c1ccc(Oc2ncccn2)cc1C` [Example 224, N-((1R,2S)-2-acrylamidocyclopentyl)-5-(2-methyl-4-(pyrimidin-2-yloxy)phenyl)-4-oxo-4,5-dihydro-3H-1-thia-3,5,8-triazaacenaphthylene-2-carboxamide], 7.46.
Same read-out and setting: the same measure for `C=CC(=O)N[C@H]1CCCC[C@H]1NC(=O)c1sc2nccc3c2c1NC(=O)N3c1cnc(OCC(C)C)cc1C` [Example 225, N-((1R,2S)-2-Acrylamidocyclohexyl)-5-(6-isobutoxy-4-methylpyridin-3-yl)-4-oxo-4,5-dihydro-3H-1-thia-3,5,8-triazaacenaphthylene-2-carboxamide]: 7.66; for `C=CC(=O)N[C@@H]1CCCC[C@H]1NC(=O)c1sc2nccc3c2c1NC(=O)N3c1ccnc(-c2ccccc2)c1` [Example 227, N-((1R,2R)-2-Acrylamidocyclohexyl)-4-oxo-5-(2-phenylpyridin-4-yl)-4,5-dihydro-3H-1-thia-3,5,8-triazaacenaphthylene-2-carboxamide]: 6.76.
The same measure, in the same setting: with `CC(=O)N[C@@H]1CC[C@@H](NC(=O)c2sc3nccc4c3c2NC(=O)N4c2ccc(Oc3ccccc3)cc2C)C1` [Example 228, N-((1R,3R)-3-Acetamidocyclopentyl)-5-(2-methyl-4-phenoxyphenyl)-4-oxo-4,5-dihydro-3H-1-thia-3,5,8-triazaacenaphthylene-2-carboxamide] the figure was 7.34; with `CNCC(=O)N[C@@H]1CC[C@@H](NC(=O)c2sc3nccc4c3c2NC(=O)N4c2ccc(Oc3ccccc3)cc2C)C1` [Example 229, 5-(2-Methyl-4-phenoxyphenyl)-N-((1R,3R)-3-(2-(methylamino)acetamido)cyclopentyl)-4-oxo-4,5-dihydro-3H-1-thia-3,5,8-triazaacenaphthylene-2-carboxamide], 7.29; with `C=CC(=O)N[C@@H]1CCC[C@@H](NC(=O)c2sc3nccc4c3c2NC(=O)N4c2ccnc(-c3ccccc3)c2)C1` [Example 232, N-((1R,3R)-3-Acrylamidocyclohexyl)-4-oxo-5-(2-phenylpyridin-4-yl)-4,5-dihydro-3H-1-thia-3,5,8-triazaacenaphthylene-2-carboxamide], 7.05.
Turning to `C=CC(=O)N[C@H]1CCC[C@H]1NC(=O)c1sc2nccc3c2c1NC(=O)N3c1ccc(OC2CCOCC2)cc1` [Example 234, N-((1R,2S)-2-Acrylamidocyclopentyl)-4-oxo-5-(4-((tetrahydro-2H-pyran-4-yl)oxy)phenyl)-4,5-dihydro-3H-1-thia-3,5,8-triazaacenaphthylene-2-carboxamide], the “BTK_I_binding pIC50” value is recorded as 6.76.
As to `Cc1cc(Oc2ccccc2)ccc1N1C(=O)Nc2c(C(=O)N[C@@H]3CC[C@@H](NC(=O)CN)C3)sc3nccc1c23` [Example 235, N-((1R,3R)-3-(2-Aminoacetamido)cyclopentyl)-5-(2-methyl-4-phenoxyphenyl)-4-oxo-4,5-dihydro-3H-1-thia-3,5,8-triazaacenaphthylene-2-carboxamide], the “BTK_I_binding pIC50” value is 7.44.
On the same count and under the same terms, with `Cc1cc(Oc2ccccc2)ccc1N1C(=O)Nc2c(C(=O)N[C@@H]3CC[C@@H](N)C3)sc3nccc1c23` [Example 236, N-((1R,3R)-3-Aminocyclopentyl)-5-(2-methyl-4-phenoxyphenyl)-4-oxo-4,5-dihydro-3H-1-thia-3,5,8-triazaacenaphthylene-2-carboxamide] the figure was 7.00.
For `C=CC(=O)N[C@@H]1CCCC[C@H]1NC(=O)c1sc2nccc3c2c1NC(=O)N3c1ccc(Oc2ccccc2)nc1` [Example 239, N-((1R,2R)-2-Acrylamidocyclohexyl)-4-oxo-5-(6-phenoxypyridin-3-yl)-4,5-dihydro-3H-1-thia-3,5,8-triazaacenaphthylene-2-carboxamide], the “BTK_I_binding pIC50” value is 6.47.
Still for that read-out and setting: with `Cc1cc(Oc2ccccc2)ccc1N1C(=O)Nc2c(C(=O)N[C@H]3CC[C@H](NC(=O)CN(C)C)C3)sc3nccc1c23` [Example 245, N-((1S,3S)-3-(2-(Dimethylamino)acetamido)cyclopentyl)-5-(2-methyl-4-phenoxyphenyl)-4-oxo-4,5-dihydro-3H-1-thia-3,5,8-triazaacenaphthylene-2-carboxamide] the figure was 6.73; with `CNCC(=O)N[C@H]1CC[C@H](NC(=O)c2sc3nccc4c3c2NC(=O)N4c2ccc(Oc3ccccc3)cc2C)C1` [Example 246, 5-(2-Methyl-4-phenoxyphenyl)-N-((1S,3S)-3-(2-(methylamino)acetamido)cyclopentyl)-4-oxo-4,5-dihydro-3H-1-thia-3,5,8-triazaacenaphthylene-2-carboxamide], 6.84; with `CN(C)C/C=C/C(=O)N[C@@H]1CC[C@H](NC(=O)c2sc3nccc4c3c2NC(=O)N4c2ccc(Oc3ccccc3)c(Cl)c2)C1` [Example 248, 5-(3-Chloro-4-phenoxyphenyl)-N-((1S,3R)-3-((E)-4-(dimethylamino)but-2-enamido)cyclopentyl)-4-oxo-4,5-dihydro-3H-1-thia-3,5,8-triazaacenaphthylene-2-carboxamide], 6.98.
As for `N[C@H]1CCC[C@H]1NC(=O)c1sc2nccc3c2c1NC(=O)N3c1cccc(-c2ccccc2)c1` [Example 249, 5-([1,1′-Biphenyl]-3-yl)-N-((1R,2S)-2-aminocyclopentyl)-4-oxo-4,5-dihydro-3H-1-thia-3,5,8-triazaacenaphthylene-2-carboxamide], the “BTK_I_binding pIC50” value is 6.90.
Same read-out and setting: with `N[C@H]1CCCC[C@H]1NC(=O)c1sc2nccc3c2c1NC(=O)N3c1ccc(Oc2ccccc2)nc1` [Example 257, N-((1R,2S)-2-Aminocyclohexyl)-4-oxo-5-(6-phenoxypyridin-3-yl)-4,5-dihydro-3H-1-thia-3,5,8-triazaacenaphthylene-2-carboxamide] the figure was 6.47.
For the molecule `N[C@H]1CCCC[C@H]1NC(=O)c1sc2nccc3c2c1NC(=O)N3c1ccnc(-c2ccccc2)c1` [Example 260, N-((1R,2S)-2-Aminocyclohexyl)-4-oxo-5-(2-phenylpyridin-4-yl)-4,5-dihydro-3H-1-thia-3,5,8-triazaacenaphthylene-2-carboxamide], the “BTK_I_binding pIC50” value was found to be 6.45.
Still for that read-out and setting: with `N[C@H]1CCC[C@H]1NC(=O)c1sc2nccc3c2c1NC(=O)N3c1ccnc(-c2ccccc2)c1` [Example 263, N-((1R,2S)-2-Aminocyclopentyl)-4-oxo-5-(2-phenylpyridin-4-yl)-4,5-dihydro-3H-1-thia-3,5,8-triazaacenaphthylene-2-carboxamide] the figure was 6.38; with `N[C@H]1CCC[C@H]1NC(=O)c1sc2nccc3c2c1NC(=O)N3c1ccc(Oc2ccccc2)nc1` [Example 265, N-((1R,2S)-2-Aminocyclopentyl)-4-oxo-5-(6-phenoxypyridin-3-yl)-4,5-dihydro-3H-1-thia-3,5,8-triazaacenaphthylene-2-carboxamide], 6.24.

The assay is the same for the next values; noted with them: read-out: BTK_I_binding pIC50 (converted).
In the case of `CC(=O)N[C@@H]1CCC[C@@H]1NC(=O)c1sc2nccc3c2c1NC(=O)N3c1ccnc(-c2ccccc2)c1` [Example 258, N-((1S,2R)-2-Acetamidocyclopentyl)-4-oxo-5-(2-phenylpyridin-4-yl)-4,5-dihydro-3H-1-thia-3,5,8-triazaacenaphthylene-2-carboxamide], the IC50 is > 1000 nM.
